According to patent publication US4337339A, “Process for preparation of folic acid derivatives” (Baker Instruments Corp., priority 1979, dated 1982):

Columns and labels:
whole milk folate binder = whole milk folate binder (Bos taurus, UniProt P02702); experiment: competitive protein binding (CPB) radioassay for folates using pteroyltyrosine [125I] as radiolabel; details: for dose response curves generated using pteroyltyrosine [125I] as label, folic acid versus N5-methyl THF: at high pH compared with lower pH; for behaviour in the folate competitive protein binding assay of radiolabel made from directly coupled p-aminobenzoyltyrosine product, compared with label from the hydrolyzed ester: pteroyltyrosine from 6-formylpterin + H-PABA-L-Tyr-OH (Example 1f(2)), radioiodinated, gel chromatography
Procedure: The use of the Centria® analytical system, Union Carbide Corporation, in this example, is meant to be illustrative and other methods, both automated and manual, obvious to those skilled in the clinical diagnostic art are also within the scope of this invention.
Briefly, the Centria® system is a tri-modular instrument in which reagents are pipetted on to a multiwell transfer disk and mixed centrifugally with standards or patients' samples. After a suitable incubation period, the components are separated by a centrifugal elution of the bound and free fractions and the bound fractions counted three at a time.
Folic acid and N^5 -methyltetrahydrofolic acid standards in the range 0-20 nanograms/milliliter were prepared in 0.05 M sodium borate, pH 9.3 containing 0.1% human serum albumin. The whole milk binder was prepared according to the method of Rothenberg et al., (3) and dissolved in sodium borate, pH 9.3 containing 0.1% human serum albumin.
(50 microliters, 20,000 cpm) plus 85 microliters of water with the limited number of binding sites contained in a 200 microliter solution of whole milk folate binder. The binding reactions may be shown as follows:
After a 10 minute incubation, the reaction mixture was centrifugally transferred onto DEAE Sephadex A-25 columns (0.75×4 in.) where separation of complexed folate from free folate was effected with 1.4 ml of elution buffer
(3) S. Rothenberg, M. DaCosta, and Z. Rosenberg, New Eng.
A gamma counter which counts three of the 36 positions at a time for one minute, so constructed that only the eluate bottom portion of the test tubes fits into the counter, was then used to count all samples. Sequential counting of the tubes thus required about 12 minutes. A small computer with printout capability then printed out the data after completion of the cycle.

carboxypeptidase A = experiment: enzymatic hydrolysis of pteroyltyrosine followed by UV spectrophotometry; format: biochemical; details: two hours, ambient temperature, Tris-HCl with zinc chloride pH 7.3
Procedure: Two millilters of a solution of pteroyltrosine ([…]) in 0.025 M Tris-HCl containing 2 mM zinc chloride, pH 7.3 were diluted to 10 ml with distilled water. A portion of this solution (2 ml) was placed in a 1 cm cuvette and in another was placed 2 ml of distilled water. To each of the cuvettes was added 50 μl of a solution of 100 μl carboxypeptidase A suspension (Aldrich chemical, lot (060637) diluted with 0.9 ml of 10% lithium chloride.
The time course of the reaction was followed spectrophotometrically (uv) over a period of two hours at ambient temperature. An increase and shift in max from 280 to 277 nm and a marked decrease in absorption at 220 nm was observed. Two isobestic points at 242 and 282 nm were visible.

[1] = storage stability of the radioiodinated product, judged by assay performance; format: physicochemical; details: ten-week period, stored in 50% aqueous propylene glycol solution
Source text: Radioiodination of biological compounds frequently leads to marked chemical instability and subsequent degradation of the radiolabel. This problem is often accentuated in the radiolabel when the materials to be radioiodinated are known to be sensitive to oxygen, light or extremes in pH, as is the case with folic acid and some derivatives.
The reaction mixture was applied to a 1×20 cm Sephadex G25, fine, (Pharmacia Fine Chemicals, Uppsala, Sweden) column hydrated with distilled water and equilibrated with 0.1 M potassium phosphate, pH 7.5. The column was eluted with 0.1 M potassium phosphate buffer and 3 ml fractions collected. The product "peak" fractions 32-34 were collected, diluted 1:1 with propylene glycol and stored below 0° C.

whole milk folate binder, sequence (P02702 20-234): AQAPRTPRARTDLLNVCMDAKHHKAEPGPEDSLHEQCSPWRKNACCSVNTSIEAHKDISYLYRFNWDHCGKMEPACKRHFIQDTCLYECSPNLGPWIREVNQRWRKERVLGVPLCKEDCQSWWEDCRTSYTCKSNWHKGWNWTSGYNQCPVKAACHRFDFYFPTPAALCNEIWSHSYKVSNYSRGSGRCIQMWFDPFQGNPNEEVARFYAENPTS

SMILES: Nc1nc2ncc(CNc3ccc(C(=O)N[C@@H](CCC(=O)O)C(=O)O)cc3)nc2c(=O)[nH]1 [folic acid]
- dose response curves generated using pteroyltyrosine [125I] as label, folic acid versus N5-methyl THF (whole milk folate binder): more nearly coincident than at lower pH

SMILES: Nc1nc2ncc(CNc3ccc(C(=O)N[C@@H](Cc4ccc(O)cc4)C(=O)O)cc3)nc2c(=O)[nH]1 [pteroyltyrosine, Pteroyl-L-Tyrosine]
- UV spectral change on treatment with carboxypeptidase A (hydrolysis) (carboxypeptidase A): final spectrum was very similar to that of pteroic acid
- behaviour in the folate competitive protein binding assay of radiolabel made from directly coupled p-aminobenzoyltyrosine product, compared with label from the hydrolyzed ester (whole milk folate binder): functioned identically
- behaviour in the folate competitive protein binding assay of radiolabel made from directly coupled p-aminobenzoyltyrosine product, compared with label from the hydrolyzed ester (whole milk folate binder; listed as Pt-L-Tyr-OH): identically

SMILES: CN1c2c(O)nc(N)nc2NCC1CNc1ccc(C(=O)N[C@@H](CCC(=O)O)C(=O)O)cc1 (stereo partly shown) [N^5 -methyl THF, N-5-methyltetrahydrofolic acid, reference compound]
- dose response curves generated using pteroyltyrosine [125I] as label, folic acid versus N5-methyl THF (whole milk folate binder): more nearly coincident than at lower pH

SMILES: Nc1nc(O)c2nc(CNc3ccc(C(=O)N[C@@H](Cc4ccc(O)c([125I])c4)C(=O)O)cc3)cnc2n1 [pteroyltyrosine [^125 I]]
- performance as radiolabel in CPB radioassay for folic acid (whole milk folate binder; folic acid concentration range 0-20 ng/ml): effective radiolabel
- stability of radioiodinated product (assay performance on storage) [1]: no deterioration in assay performance
